Source: ChEMBL document CHEMBL3272151, “Quantitative structure-activity relationship of chymotrypsin-ligand interactions” (J Med Chem, 1977)

Columns and labels:
Conditions in all cases: Homo sapiens
[1] = Binding affinity to chymotrypsin (unknown origin) assessed as deacetylation
[2] = Binding affinity to chymotrypsin (unknown origin)
[3] = Binding affinity to chymotrypsin (unknown origin) assessed as hydrolysis

| SMILES | log K [1] | log(1/Km) [2] | logKcat [3] | also measured |
| --- | --- | --- | --- | --- |
| C[C@@H](NC=O)C(=O)Oc1ccc([N+](=O)[O-])cc1 | -1.14 | 5.21 | – | – |
| CCCC[C@H](NC(=O)OCc1ccccc1)C(=O)Oc1ccc([N+](=O)[O-])cc1 | 1.1 | 5.24 | – | – |
| Cc1ccc(OC(=O)CNC(=O)c2ccccc2)cc1 | – | 3.87 | -0.21 | – |
| CC(=O)c1ccc(OC(=O)[C@H](Cc2ccccc2)NS(C)(=O)=O)cc1 | – | 4.89 | 1.54 | – |
| COC(=O)[C@H](C)NC(=O)c1ccncc1 | – | 1.54 | -0.38 | – |
| CCOC(=O)[C@@H](Cc1ccc(O)cc1)NC(=O)c1cccnc1 | – | – | – | log1/Ki [2]: 3.1 |
| CC(=O)N[C@H](C(=O)OCCCl)C(C)C | – | 1.72 | -0.64 | – |
| O=C(Cc1ccccc1)Oc1ccc([N+](=O)[O-])cc1 | -1.65 | – | – | – |
| CC[C@H](C)OC(=O)[C@H](Cc1ccccc1)NC(C)=O | – | 3.04 | 1.55 | – |
| COC(=O)[C@H](CC1CCCCC1)NC(C)=O | – | 3.72 | 1.18 | – |
| CCC[C@@H](NC(=O)c1ccccc1)C(=O)OC | – | – | – | log1/Ki [2]: 2.75 |
| O=C(CNC(=O)c1ccccc1)Oc1ccc(F)cc1 | – | 3.85 | -0.28 | – |
| CC(C)C[C@@H](NC(=O)OCc1ccccc1)C(=O)Oc1ccc([N+](=O)[O-])cc1 | -0.96 | 5.62 | – | – |
| COC(=O)[C@@H](C)NC(=O)c1ccccn1 | – | 1.77 | – | – |
| CCCOC(=O)CNC(=O)c1ccccc1 | – | 2.72 | -0.9 | – |
| COC(=O)[C@H](C)NC(=O)c1ccccc1 | – | 2.01 | -0.64 | – |
| CCC(=O)Oc1ccc([N+](=O)[O-])cc1 | -2.1 | – | – | – |
| CC(C)OC(=O)CNC(=O)c1ccccc1 | – | 2.69 | -1.32 | – |
| O=C(CI)Oc1ccc([N+](=O)[O-])cc1 | -0.1 | – | – | – |
| CC(C)C[C@H](NC(=O)OCc1ccccc1)C(=O)Oc1ccc([N+](=O)[O-])cc1 | 0.92 | 5.32 | – | – |
| C[C@@H](NC(=O)OCc1ccccc1)C(=O)Oc1ccc([N+](=O)[O-])cc1 | -1.05 | 5.08 | – | – |
| O=COc1ccc([N+](=O)[O-])cc1 | 0.39 | – | – | – |

| SMILES | log K [1] | log(1/Km) [2] | logKcat [3] | also measured |
| --- | --- | --- | --- | --- |
| CCC[C@H](NC(=O)CCl)C(=O)OC | – | 2.3 | – | – |
| COC(=O)[C@H](C)NC(=O)c1cccnc1 | – | 1.43 | -0.24 | – |
| O=C(CCc1ccccc1)Oc1ccc([N+](=O)[O-])cc1 | -0.73 | – | – | – |
| CCOC(=O)[C@H](C)NC(C)=O | – | 0.6 | – | – |
| COC(=O)[C@H](C)NC(C)=O | – | 0.21 | 0.11 | – |
| O=C(CCc1c[nH]c2ccccc12)Oc1ccc([N+](=O)[O-])cc1 | -0.47 | – | – | – |
| O=C(N[C@@H](Cc1ccccc1)C(=O)Oc1ccc([N+](=O)[O-])cc1)OCc1ccccc1 | 1.59 | 6.32 | – | – |
| CC[C@@H](C)OC(=O)CNC(=O)c1ccccc1 | – | 2.7 | – | – |
| CCC[C@H](NC(=O)OCc1ccccc1)C(=O)Oc1ccc([N+](=O)[O-])cc1 | 0.19 | 5.57 | – | – |
| CC(=O)Oc1ccc([N+](=O)[O-])cc1 | -2 | – | – | – |
| O=CNCC(=O)Oc1ccc([N+](=O)[O-])cc1 | -0.61 | 4.8 | – | – |
| C[C@H](NC=O)C(=O)Oc1ccc([N+](=O)[O-])cc1 | -0.61 | 4.88 | – | – |
| O=C(CNC(=O)c1ccccc1)Oc1cccc([N+](=O)[O-])c1 | – | 4.17 | -0.28 | – |
| CCOC(=O)C(NC(C)=O)C(=O)OCC | – | 1.51 | -0.15 | – |
| COC(=O)[C@@H](C)NC(=O)c1cccnc1 | – | 2.22 | – | – |
| COCC(=O)Oc1ccc([N+](=O)[O-])cc1 | -0.46 | – | – | – |
| CCCCCC[C@H](NC(C)=O)C(=O)OC | – | 2.53 | 0.79 | – |
| O=C(CNC(=O)c1ccccc1)Oc1ccc(Cl)cc1 | – | 3.94 | -0.31 | – |
| CC(=O)NCC(=O)O[C@H](C)c1ccccc1 | – | 3.66 | -0.6 | – |
| O=C(Oc1ccc([N+](=O)[O-])cc1)c1cccc([N+](=O)[O-])c1 | -2.85 | – | – | – |
| CCC[C@@H](NC(C)=O)C(=O)OC | – | – | – | log1/Ki [2]: 0.95 |
| CCOC(=O)C[C@H](NC(C)=O)C(=O)OCC | – | 1.64 | – | – |

| SMILES | log K [1] | log(1/Km) [2] | logKcat [3] | also measured |
| --- | --- | --- | --- | --- |
| COC(=O)[C@@H](C)NC(=O)c1ccccc1N | – | 2.8 | – | – |
| COC(=O)[C@@H](Cc1ccccc1)NC=O | – | 3.6 | – | – |
| O=C(CNC(=O)OCc1ccccc1)Oc1ccc([N+](=O)[O-])cc1 | -0.39 | 5.31 | – | – |
| O=C(CCCl)Oc1ccc([N+](=O)[O-])cc1 | -1.67 | – | – | – |
| CC(=O)N[C@@H](Cc1ccccc1)C(=O)O[C@H](C)c1ccccc1 | – | 4.3 | 2.02 | – |
| CCC(=O)NCC(=O)Oc1ccc([N+](=O)[O-])cc1 | -0.25 | 3.95 | – | – |
| COC(=O)[C@H](C)NC(=O)c1ccc2ccccc2n1 | – | 3.66 | -2.4 | – |
| COC(=O)[C@@H](Cc1ccccc1)NC(C)=O | – | – | – | log1/Ki [2]: 2.64 |
| CCCCC[C@H](NC(C)=O)C(=O)OC | – | 2.79 | 1.13 | – |
| C[C@H](OC(=O)CNC(=O)c1ccccc1)c1ccccc1 | – | 3.77 | -0.13 | – |
| CC(=O)N[C@@H](Cc1ccccc1)C(=O)O[C@H](C)C1CCCCC1 | – | 3.31 | 1.29 | – |
| CC(=O)N[C@@H](Cc1ccccc1)C(=O)O[C@@H](C)c1ccccc1 | – | 4.22 | 2.04 | – |
| O=C(Cc1c[nH]c2ccccc12)Oc1ccc([N+](=O)[O-])cc1 | -2.52 | – | – | – |
| O=C(CCCc1ccccc1)Oc1ccc([N+](=O)[O-])cc1 | -0.87 | – | – | – |
| CC(=O)N[C@H](C(=O)Oc1ccc([N+](=O)[O-])cc1)C(C)C | – | 3.31 | – | – |
| Cc1ccc(OC(=O)[C@H](Cc2ccccc2)NS(C)(=O)=O)cc1 | – | 4.7 | – | log K [3]: 1.56 |
| CC(C)(C)C(=O)Oc1ccc([N+](=O)[O-])cc1 | -3.69 | – | – | – |
| O=C(CCCCc1ccccc1)Oc1ccc([N+](=O)[O-])cc1 | -1.68 | – | – | – |
| CCOC(=O)[C@@H](NC(C)=O)c1ccccc1 | – | 2.48 | -0.05 | – |
| CCC[C@H](NC(C)=O)C(=O)OCCCl | – | 3.1 | 0.57 | – |
| CCCCCC(=O)Oc1ccc([N+](=O)[O-])cc1 | -1.44 | – | – | – |
| CCCCCCC(=O)Oc1ccc([N+](=O)[O-])cc1 | -1.21 | – | – | – |

| SMILES | log K [1] | log(1/Km) [2] | logKcat [3] | also measured |
| --- | --- | --- | --- | --- |
| CC(C)[C@H](NC(=O)OCc1ccccc1)C(=O)Oc1ccc([N+](=O)[O-])cc1 | -0.93 | 4.75 | – | – |
| O=C(CCCc1c[nH]c2ccccc12)Oc1ccc([N+](=O)[O-])cc1 | -0.83 | – | – | – |
| CCCCOC(=O)CNC(=O)c1ccccc1 | – | 2.95 | -0.76 | – |
| COC(=O)[C@@H](C)NC(=O)c1ccccc1 | – | 2.48 | – | – |
| NC(=O)C[C@H](NC(=O)OCc1ccccc1)C(=O)Oc1ccc([N+](=O)[O-])cc1 | 1.53 | 4.87 | – | – |
| O=C(CCCCCl)Oc1ccc([N+](=O)[O-])cc1 | -1.37 | – | – | – |
| CS(=O)(=O)N[C@@H](Cc1ccccc1)C(=O)Oc1ccccc1 | – | 4.57 | 1.51 | – |
| CCC[C@H](NC(C)=O)C(=O)OC(C)C | – | 1.51 | 0.46 | – |
| CS(=O)(=O)N[C@@H](Cc1ccccc1)C(=O)Oc1cccc([N+](=O)[O-])c1 | – | 5.06 | 1.49 | – |
| O=C(CNC(=O)c1ccccc1)OCc1ccncc1 | – | 4.04 | -0.25 | – |
| C[C@H](NC(=O)OCc1ccccc1)C(=O)Oc1ccc([N+](=O)[O-])cc1 | 0.48 | 4.7 | – | – |
| CC(=O)N[C@@H](Cc1ccccc1)C(=O)O[C@@H](C)C1CCCCC1 | – | 3.28 | 1.37 | – |
| O=C(CCl)Oc1ccc([N+](=O)[O-])cc1 | 0.47 | – | – | – |
| CC(C)COC(=O)CNC(=O)c1ccccc1 | – | 2.62 | -0.78 | – |
| COC(=O)[C@H](NC(=O)c1ccccc1)C(C)C | – | – | – | log1/Ki [2]: 2.28 |
| COC(=O)[C@H](NC(=O)CCl)C(C)C | – | – | – | log1/Ki [2]: 0.77 |
| CCC[C@@H](NC(=O)OCc1ccccc1)C(=O)Oc1ccc([N+](=O)[O-])cc1 | -0.82 | 5.5 | – | – |
| CC[C@H](NC(=O)OCc1ccccc1)C(=O)Oc1ccc([N+](=O)[O-])cc1 | 0.43 | 5.74 | – | – |
| O=C(CNC(=O)c1ccccc1)Oc1ccc([N+](=O)[O-])cc1 | – | 4.06 | -0.31 | – |
| CCCC(=O)NCC(=O)Oc1ccc([N+](=O)[O-])cc1 | -0.06 | 3.87 | – | – |
| COc1ccc(OC(=O)[C@H](Cc2ccccc2)NS(C)(=O)=O)cc1 | – | 4.82 | 1.54 | – |
| COC(=O)[C@H](NC(C)=O)C(C)C | – | – | – | log1/Ki [2]: 0.71 |

| SMILES | log K [1] | log(1/Km) [2] | logKcat [3] | also measured |
| --- | --- | --- | --- | --- |
| CCOC(=O)CNC(=O)c1ccccc1 | – | 2.64 | – | – |
| CC(C)(C)CC(=O)Oc1ccc([N+](=O)[O-])cc1 | -3.82 | – | – | – |
| CC(=O)N[C@@H](C)C(=O)Oc1ccc([N+](=O)[O-])cc1 | – | 3.32 | – | – |
| CC(C)[C@@H](NC(=O)OCc1ccccc1)C(=O)Oc1ccc([N+](=O)[O-])cc1 | -2.1 | 5.13 | – | – |
| CC(C)C(=O)Oc1ccc([N+](=O)[O-])cc1 | -2.45 | – | – | – |
| CCCC(=O)Oc1ccc([N+](=O)[O-])cc1 | -2.22 | – | – | – |
| COC(=O)[C@@H](C)NC(=O)c1cccs1 | – | 2.16 | – | – |
| O=C(N[C@H](Cc1ccccc1)C(=O)Oc1ccc([N+](=O)[O-])cc1)OCc1ccccc1 | -0.74 | 6.42 | – | – |
| CC(=O)NCCCC(=O)Oc1ccc([N+](=O)[O-])cc1 | -2.21 | – | – | – |
| CCOC(=O)[C@@H](Cc1ccc(O)cc1)NC(C)=O | – | – | – | log1/Ki [2]: 2.4 |
| NC(=O)C[C@@H](NC(=O)OCc1ccccc1)C(=O)Oc1ccc([N+](=O)[O-])cc1 | -1.65 | 5.84 | – | – |
| CCC[C@@H](NC(=O)CCl)C(=O)OC | – | – | – | log1/Ki [2]: 1.23 |
| O=C(CCCCl)Oc1ccc([N+](=O)[O-])cc1 | -1.27 | – | – | – |
| COC(=O)[C@@H](C)NC(=O)c1ccncc1 | – | 1.57 | – | – |
| CCCCC(=O)Oc1ccc([N+](=O)[O-])cc1 | -1.77 | – | – | – |
| CC(C)CC(=O)Oc1ccc([N+](=O)[O-])cc1 | -2.9 | – | – | – |
| CC[C@@H](NC(=O)OCc1ccccc1)C(=O)Oc1ccc([N+](=O)[O-])cc1 | -1.45 | 5.71 | – | – |
| CCCCCCCC(=O)Oc1ccc([N+](=O)[O-])cc1 | -1.47 | – | – | – |
